Measured values as given in patent US6355648B1, “Thio-oxindole derivatives” (American Home Products Corporation, priority 1999, dated 2002).
“And” between values parts separate entries of the source, which are not always exact repeats. Identical values can stand only once.

Legend:
[1] = tested on: rat uterine decidualization; experiment: Rat decidualization assay; type: in vivo; conditions: for EC50: half-maximal increase in decidual response (uterine wet weight), ovariectomized rats, s.c., individual studies
Description: 1. Rat Decidualization Assay:
The animals are treated once daily for seven days.
Uteri are removed and trimmed of fat. Decidualized (D-hom) and control (C-horn) uterine horns are weighed separately.
Body weight: Mean total animal body weight (default-kg)
Decidual response: [(D-C)/C]×100%

human PR = biological target: T1, human PR (Homo sapiens, UniProt P06401); experiment: PRE-luciferase assay in CV-1 cells; type: cell-based; conditions: PRE-luciferase agonist mode in CV-1 cells
T1 construct: expressed in transfected cells; host or cells: CV-1 cells, electroporated with pLEM-hPR-B plasmid
T1 sequence (P06401 1-933): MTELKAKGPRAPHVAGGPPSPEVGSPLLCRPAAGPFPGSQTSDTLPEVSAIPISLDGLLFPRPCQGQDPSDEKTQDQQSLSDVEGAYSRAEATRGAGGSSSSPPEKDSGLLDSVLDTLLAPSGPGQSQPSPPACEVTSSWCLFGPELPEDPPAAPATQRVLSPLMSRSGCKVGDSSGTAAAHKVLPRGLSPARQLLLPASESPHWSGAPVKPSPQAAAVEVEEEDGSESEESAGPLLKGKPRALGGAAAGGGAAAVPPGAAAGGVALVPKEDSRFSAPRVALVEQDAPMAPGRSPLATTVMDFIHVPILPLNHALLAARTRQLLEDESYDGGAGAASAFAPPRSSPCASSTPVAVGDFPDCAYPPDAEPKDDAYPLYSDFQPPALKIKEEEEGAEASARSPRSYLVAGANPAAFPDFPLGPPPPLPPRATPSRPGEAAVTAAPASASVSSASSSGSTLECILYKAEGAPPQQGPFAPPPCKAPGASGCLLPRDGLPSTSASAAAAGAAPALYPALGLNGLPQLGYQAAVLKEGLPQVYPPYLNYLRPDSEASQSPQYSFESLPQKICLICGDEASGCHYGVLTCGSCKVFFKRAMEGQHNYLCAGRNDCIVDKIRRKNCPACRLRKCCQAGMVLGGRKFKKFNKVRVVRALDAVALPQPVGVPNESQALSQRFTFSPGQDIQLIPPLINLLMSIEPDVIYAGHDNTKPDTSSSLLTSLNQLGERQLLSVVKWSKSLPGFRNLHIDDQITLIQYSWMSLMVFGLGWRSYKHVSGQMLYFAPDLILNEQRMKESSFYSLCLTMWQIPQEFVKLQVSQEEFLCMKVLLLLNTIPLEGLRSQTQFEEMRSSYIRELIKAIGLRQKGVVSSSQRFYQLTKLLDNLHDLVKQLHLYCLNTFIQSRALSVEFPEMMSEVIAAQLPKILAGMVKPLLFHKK
Description: 2. PRE-luciferase Assay in CV-1 Cells
The object of this assay is to determine a compound's progestational or antiprogestational potency based on its effect on PRE-luciferase reporter activity in CV-1 cells co-transfected with human PR and PRE-luciferase plasmids. The materials methods used in the assay are as follows.
a. Growth Medium: DMEM (BioWhittaker) containing 10% (v/v) fetal bovine serum (heat inactivated), 0.1 mM MEM non-essential amino acids, 100 U/ml penicillin, […] streptomycin, and 2 mM GlutaMax (GIBCO, BRL). Experimental medium: DMEM (BioWhittaker), phenol red-free, containing 10% (v/v) charcoal-stripped fetal bovine serum (heat-inactivated), 0.1 mM MEM non-essential amino acids, 100 U/ml penicillin, […] streptomycin, and 2 mM GlutaMax (GIBCO, BRL).
b. Cell Culture, Transfection, Treatment, and Luciferase Assay
Stock CV-1 cells are maintained in growth medium. Co-transfection is done using 1.2×10^7 cells, […] pLEM plasmid with hpR-B inserted at Sph1 and BamH1 sites, […] pGL3 plasmid with two PREs upstream of the luciferase sequence, and […] sonicated calf thymus DNA as carrier DNA in […]. Electroporation is carried out at 260 V and […] in a Biorad Gene Pulser II. After electroporation, cells are resuspended in growth medium and plated in 96-well plate at 40,000 cells/well in 200 μl. Following overnight incubation, the medium is changed to experimental medium. Cells are then treated with reference or test compounds in experimental medium. […] Twenty-four hr. after treatment, the medium is discarded, cells are washed three times with D-PBS (GIBCO, BRL). Fifty μl of cell lysis buffer (Promega, Madison, Wis.) is added to each well and the plates are shaken for 15 min in a Titer Plate Shaker (Lab Line Instrument, Inc.). Luciferase activity is measured using luciferase reagents from Promega.
Each treatment consists of at least 4 replicates. Log transformed data are used for analysis of variance and nonlinear dose response curve fitting for both agonist and antagonist modes. Huber weighting is used to downweight the effects of outliers. EC50 or IC50 values are calculated from the retransformed values.

[2] = biological target: T2, A-form of the human progesterone receptor (Homo sapiens, UniProt P06401); experiment: hPR binding assay (competitive radioligand binding)
T2 sequence (P06401 1-769 isoform P06401-2): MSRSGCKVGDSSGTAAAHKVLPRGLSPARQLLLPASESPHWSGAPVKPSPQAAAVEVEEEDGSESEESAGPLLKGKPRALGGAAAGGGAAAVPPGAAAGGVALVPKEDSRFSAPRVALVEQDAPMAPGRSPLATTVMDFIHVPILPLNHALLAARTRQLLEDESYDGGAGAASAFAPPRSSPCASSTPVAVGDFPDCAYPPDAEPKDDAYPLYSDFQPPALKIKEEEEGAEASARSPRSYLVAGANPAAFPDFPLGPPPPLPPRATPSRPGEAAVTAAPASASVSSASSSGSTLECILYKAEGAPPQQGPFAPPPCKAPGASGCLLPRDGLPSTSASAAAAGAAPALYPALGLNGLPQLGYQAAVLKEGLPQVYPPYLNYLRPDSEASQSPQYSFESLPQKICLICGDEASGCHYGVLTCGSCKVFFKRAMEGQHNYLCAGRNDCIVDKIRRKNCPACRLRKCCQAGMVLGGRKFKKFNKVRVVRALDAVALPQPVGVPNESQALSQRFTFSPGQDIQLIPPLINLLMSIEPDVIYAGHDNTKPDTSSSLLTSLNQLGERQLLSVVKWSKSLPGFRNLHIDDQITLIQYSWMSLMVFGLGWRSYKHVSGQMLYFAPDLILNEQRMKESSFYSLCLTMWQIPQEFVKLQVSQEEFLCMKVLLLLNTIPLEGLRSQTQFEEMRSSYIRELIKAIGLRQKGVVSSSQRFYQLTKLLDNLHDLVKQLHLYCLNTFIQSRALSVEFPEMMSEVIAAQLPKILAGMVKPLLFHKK

ovulation = experiment: Rat ovulation inhibition model; type: in vivo
T47D cells = experiment: T47D cell proliferation assay (BrdU incorporation); type: cell-based; conditions: half-maximal increase in BrdU incorporation in T47D cells; individual studies
Description: 3. T47D Cell Proliferation Assay
The objective of this assay is the determination of progestational and antiprogestational potency by using a cell proliferation assay in T47D cells. A compound's effect on DNA synthesis in T47D cells is measured.
DMEM:F12 (1:1) (GIBCO, BRL) supplemented with 10% (v/v) fetal bovine serum (not heat-inactivated), 100 U/ml penicillin, […], and 2 mM GlutaMax (GIBCO, BRL).
Minimum Essential Medium (MEM) (#51200-038GIBCO, BRL) phenol red-free supplemented with 0.5% charcoal stripped fetal bovine serum, 100 U/ml penicillin, 200 mg/ml streptomycin, and 2 mM GlutaMax (GIBCO, BRL).
Stock T47 D cells are maintained in growth medium For BrdU incorporation assay, cells are plated in 96-well plates (Falcon, Becton Dickinson Labware) at 10,000 cells/well in growth medium. […]
At the end of BrdU labeling, the medium is removed and BrdU incorporation is measured using a cell proliferation ELISA kit (#RPN 250, Amersham Life Science) according to manufacturer's instructions. […] Then 25 μl of 1 M sulfuric acid is added to each well to stop color reaction and optical density is read in a plate reader at 450 nm within 5 min.
Square root-transformed data are used for analysis of variance and nonlinear dose response curve fitting for both agonist and antagonist modes. […] EC50 or IC50 values are calculated from the retransformed values. […]

In the case of `C#C[C@]1(O)CC[C@H]2[C@@H]3CCC4=CC(=O)CC[C@@H]4[C@H]3C(=C)C[C@@]21CC` [3-Ketodesogestrel], the EC50 [1] is reported as 0.10 mg/kg, s.c. and 0.06 mg/kg, s.c. and 0.11 mg/kg, s.c.
For `S=C1Nc2ccc(-c3cccc(Cl)c3)cc2C12CCCCC2` [Example 1, 5′-(3-Chlorophenyl)spiro[cyclohexane-1,3′-[3H]indole]-2′(1′H)-thione], the melting point was 223 to 227 °C, the EC50 (human PR) was 0.8 nM and the Ki [2] was 0.2 nM.
In the case of `N#Cc1cc(-c2ccc3c(c2)C2(CCCCC2)C(=S)N3)cs1` [Example 3, 4-(1′, 2′-Dihydro-2′-thioxospiro[cyclohexane-1,3′-[3H]indol]-5′-yl)-2-thiophenecarbonitrile], the melting point is reported as 230 to 232 °C, the EC50 (human PR) is reported as 0.2 nM and the Ki [2] is reported as 0.1 nM.
For `N#Cc1cc(F)cc(-c2ccc3c(c2)C2(CCCCC2)C(=S)N3)c1` [Example 4, 3-(1,2-Dihydro-2-thioxospiro[cyclohexane-1,3-[3H]indol]-5-yl)-5-fluorobenzonitrile], the melting point was 236 to 250 °C, the EC50 (human PR) was 0.1 nM and the “Ovulation inhibition IC100” value (ovulation) was 0.1 mg/kg. For the same compound, the Ki [2] was 0.06 nM.
`Cc1cc(C(N)=S)sc1-c1ccc2c(c1)C1(CCCCC1)C(=S)N2` [Example 5, 4-Methyl-5-(1,2-dihydro-2-thioxospiro[cyclohexane-1,3-[3H]-indol]-5-yl)-2-thiophene Thioamide] gave a melting point of 244 to 249 °C and an EC50 (human PR) of 0.3 nM.
Work on `CC1(C)C(=S)Nc2ccc(-c3cccc(Cl)c3)cc21` [Example 16, 5-(3-Chlorophenyl)-3,3-dimethyl-1,3-dihydro-2H-indole-2-thione] yielded a melting point of 158 to 160 °C.
`CC1(Cc2ccccc2)C(=S)Nc2ccc(-c3cccc(Cl)c3)cc21` (stereo not shown) [Example 17, 3-Benzyl-5-(3-chlorophenyl)-3-methyl-1,3-dihydro-2H-indole-2-thione] gave a melting point of 168 to 170 °C.
With `COc1cccc(-c2ccc3c(c2)C(C)(C)C(=S)N3)c1` [Example 19, 5-(3-Methoxyphenyl)-3,3-dimethyl-1,3-dihydro-2H-indole2-thione] the melting point was 149 to 150 °C.
With `C#C[C@]1(O)CC[C@H]2[C@@H]3CCC4=CC(=O)CC[C@@H]4[C@H]3CC[C@@]21CC` [Levonorgestrel] the EC50 [1] was 0.08 mg/kg, s.c. and 0.12 mg/kg, s.c. and 0.09 mg/kg, s.c.
With `CC(=O)O[C@]1(C(C)=O)CC[C@H]2[C@@H]3C[C@H](C)C4=CC(=O)CC[C@]4(C)[C@H]3CC[C@@]21C` [MPA, medroxyprogesterone acetate] the EC50 (T47D cells) was 0.017 nM and 0.019 nM and the EC50 [1] was 0.42 mg/kg, s.c. and 0.39 mg/kg, s.c.
In the case of `CC(=O)[C@H]1CC[C@H]2[C@@H]3CCC4=CC(=O)CC[C@]4(C)[C@H]3CC[C@]12C` [Progesterone], the EC50 [1] is reported as 5.50 mg/kg, s.c. and 6.21 mg/kg, s.c.
In the case of `CC#C[C@]1(O)CC[C@H]2[C@@H]3CCC4=CC(=O)CCC4=C3[C@@H](c3ccc(N(C)C)cc3)C[C@@]21C` [RU486], the IC50 ([1]; half-maximal decrease in EC50 progesterone induced decidual response, rats, p.o.) is reported as 0.21 mg/kg, p.o. and 0.14 mg/kg, p.o.
For `C[C@H](O)C(=O)[C@@]1(C)CC[C@H]2[C@@H]3CCC4=CC(=O)CCC4=C3CC[C@@]21C` [Trimegestone], the EC50 (T47D cells) was 0.017 nM and 0.014 nM and 0.019 nM.
